# Reference: ChEMBL document CHEMBL5724914, “Linking interpersonal differences in gut microbiota composition and drug biotransformation activity” (2024)
# Details: human gut metagenome, 24 h, 2 µM
# Note: call rule not given here.
row,Compound,Bacterial Biotransformation
1,COC(=O)C(c1ccccc1)C1CCCCN1 (stereo not given) [METHYLPHENIDATE],Compound NOT metabolized
2,CN1CCN2c3ccccc3Cc3ccccc3C2C1 (stereo not given) [MIANSERIN],Compound NOT metabolized
3,CC#C[C@]1(O)CC[C@H]2[C@@H]3CCC4=CC(=O)CCC4=C3[C@@H](c3ccc(N(C)C)cc3)C[C@@]21C [MIFEPRISTONE],Compound metabolized
4,CC(C)(C)NCC(O)COc1cccc2c1CC(O)C(O)C2 (stereo not given) [NADOLOL],Compound NOT metabolized

# Details: human gut metagenome, 24 h, 2 µM
# Remark: another data set of the same source
row,Compound,Bacterial Biotransformation
1,COC(=O)C(c1ccccc1)C1CCCCN1 (stereo not given) [METHYLPHENIDATE],Compound NOT metabolized
2,CN1CCN2c3ccccc3Cc3ccccc3C2C1 (stereo not given) [MIANSERIN],Compound NOT metabolized
3,CC#C[C@]1(O)CC[C@H]2[C@@H]3CCC4=CC(=O)CCC4=C3[C@@H](c3ccc(N(C)C)cc3)C[C@@]21C [MIFEPRISTONE],Compound metabolized
4,CC(C)(C)NCC(O)COc1cccc2c1CC(O)C(O)C2 (stereo not given) [NADOLOL],Compound metabolized

# Assay: (§1) The drug is tested on Z-025 corresponding to rabbit gut metagenome with ENA study accession number: PRJEB37062 and ENA sample accession number: ERS12561824 for biotransformation under anaerobic condition. The drug concentrations were measured over 9 timepoints collected between 0 and 24 hours of incubation by liquid-chromatography-coupled mass spectrometry (LC–MS)
# Details: 2 µM
row,Compound,Bacterial Biotransformation
1,COC(=O)C(c1ccccc1)C1CCCCN1 (stereo not given) [METHYLPHENIDATE],Compound NOT metabolized
2,CN1CCN2c3ccccc3Cc3ccccc3C2C1 (stereo not given) [MIANSERIN],Compound metabolized
3,CC#C[C@]1(O)CC[C@H]2[C@@H]3CCC4=CC(=O)CCC4=C3[C@@H](c3ccc(N(C)C)cc3)C[C@@]21C [MIFEPRISTONE],Compound NOT metabolized
4,CC(C)(C)NCC(O)COc1cccc2c1CC(O)C(O)C2 (stereo not given) [NADOLOL],Compound NOT metabolized

# Details: human gut metagenome, 24 h, 2 µM
# Remark: another data set of the same source
row,Compound,Bacterial Biotransformation
1,COC(=O)C(c1ccccc1)C1CCCCN1 (stereo not given) [METHYLPHENIDATE],Compound NOT metabolized
2,CN1CCN2c3ccccc3Cc3ccccc3C2C1 (stereo not given) [MIANSERIN],Compound NOT metabolized
3,CC#C[C@]1(O)CC[C@H]2[C@@H]3CCC4=CC(=O)CCC4=C3[C@@H](c3ccc(N(C)C)cc3)C[C@@]21C [MIFEPRISTONE],Compound NOT metabolized
4,CC(C)(C)NCC(O)COc1cccc2c1CC(O)C(O)C2 (stereo not given) [NADOLOL],Compound NOT metabolized

# Assay: as §1, with “Z-006” for “Z-025”, “mouse” for “rabbit”, “ERS12561806” for “ERS12561824”
# Details: 2 µM
row,Compound,Bacterial Biotransformation
1,COC(=O)C(c1ccccc1)C1CCCCN1 (stereo not given) [METHYLPHENIDATE],Compound NOT metabolized
2,CN1CCN2c3ccccc3Cc3ccccc3C2C1 (stereo not given) [MIANSERIN],Compound NOT metabolized
3,CC#C[C@]1(O)CC[C@H]2[C@@H]3CCC4=CC(=O)CCC4=C3[C@@H](c3ccc(N(C)C)cc3)C[C@@]21C [MIFEPRISTONE],Compound metabolized
4,CC(C)(C)NCC(O)COc1cccc2c1CC(O)C(O)C2 (stereo not given) [NADOLOL],Compound NOT metabolized

# Assay: as §1, with “Z-009” for “Z-025”, “pig” for “rabbit”, “ERS12561809” for “ERS12561824”
# Details: 2 µM
row,Compound,Bacterial Biotransformation
1,COC(=O)C(c1ccccc1)C1CCCCN1 (stereo not given) [METHYLPHENIDATE],Compound metabolized
2,CN1CCN2c3ccccc3Cc3ccccc3C2C1 (stereo not given) [MIANSERIN],Compound metabolized
3,CC#C[C@]1(O)CC[C@H]2[C@@H]3CCC4=CC(=O)CCC4=C3[C@@H](c3ccc(N(C)C)cc3)C[C@@]21C [MIFEPRISTONE],Compound metabolized
4,CC(C)(C)NCC(O)COc1cccc2c1CC(O)C(O)C2 (stereo not given) [NADOLOL],Compound metabolized

# Details: human gut metagenome, 24 h, 2 µM
# Remark: another data set of the same source
row,Compound,Bacterial Biotransformation
1,COC(=O)C(c1ccccc1)C1CCCCN1 (stereo not given) [METHYLPHENIDATE],Compound NOT metabolized
2,CN1CCN2c3ccccc3Cc3ccccc3C2C1 (stereo not given) [MIANSERIN],Compound metabolized
3,CC#C[C@]1(O)CC[C@H]2[C@@H]3CCC4=CC(=O)CCC4=C3[C@@H](c3ccc(N(C)C)cc3)C[C@@]21C [MIFEPRISTONE],Compound NOT metabolized
4,CC(C)(C)NCC(O)COc1cccc2c1CC(O)C(O)C2 (stereo not given) [NADOLOL],Compound NOT metabolized

# Assay: as §1, with “Z-007” for “Z-025”, “rat” for “rabbit”, “ERS12561807” for “ERS12561824”
# Details: 2 µM
row,Compound,Bacterial Biotransformation
1,COC(=O)C(c1ccccc1)C1CCCCN1 (stereo not given) [METHYLPHENIDATE],Compound NOT metabolized
2,CN1CCN2c3ccccc3Cc3ccccc3C2C1 (stereo not given) [MIANSERIN],Compound NOT metabolized
3,CC#C[C@]1(O)CC[C@H]2[C@@H]3CCC4=CC(=O)CCC4=C3[C@@H](c3ccc(N(C)C)cc3)C[C@@]21C [MIFEPRISTONE],Compound NOT metabolized
4,CC(C)(C)NCC(O)COc1cccc2c1CC(O)C(O)C2 (stereo not given) [NADOLOL],Compound NOT metabolized

# Assay: as §1, with “WLS-073” for “Z-025”, “human” for “rabbit”, “ERS12561749” for “ERS12561824”
# Details: 2 µM
row,Compound,Bacterial Biotransformation
1,COC(=O)C(c1ccccc1)C1CCCCN1 (stereo not given) [METHYLPHENIDATE],Compound NOT metabolized
2,CN1CCN2c3ccccc3Cc3ccccc3C2C1 (stereo not given) [MIANSERIN],Compound NOT metabolized
3,CC#C[C@]1(O)CC[C@H]2[C@@H]3CCC4=CC(=O)CCC4=C3[C@@H](c3ccc(N(C)C)cc3)C[C@@]21C [MIFEPRISTONE],Compound NOT metabolized
4,CC(C)(C)NCC(O)COc1cccc2c1CC(O)C(O)C2 (stereo not given) [NADOLOL],Compound NOT metabolized

# Assay: as §1, with “WLS-052” for “Z-025”, “human” for “rabbit”, “ERS12561747” for “ERS12561824”
# Details: 2 µM
row,Compound,Bacterial Biotransformation
1,COC(=O)C(c1ccccc1)C1CCCCN1 (stereo not given) [METHYLPHENIDATE],Compound NOT metabolized
2,CN1CCN2c3ccccc3Cc3ccccc3C2C1 (stereo not given) [MIANSERIN],Compound NOT metabolized
3,CC#C[C@]1(O)CC[C@H]2[C@@H]3CCC4=CC(=O)CCC4=C3[C@@H](c3ccc(N(C)C)cc3)C[C@@]21C [MIFEPRISTONE],Compound metabolized
4,CC(C)(C)NCC(O)COc1cccc2c1CC(O)C(O)C2 (stereo not given) [NADOLOL],Compound NOT metabolized

# Assay: as §1, with “Z-022” for “Z-025”, “mouse” for “rabbit”, “ERS12561821” for “ERS12561824”
# Details: 2 µM
row,Compound,Bacterial Biotransformation
1,COC(=O)C(c1ccccc1)C1CCCCN1 (stereo not given) [METHYLPHENIDATE],Compound NOT metabolized
2,CN1CCN2c3ccccc3Cc3ccccc3C2C1 (stereo not given) [MIANSERIN],Compound metabolized
3,CC#C[C@]1(O)CC[C@H]2[C@@H]3CCC4=CC(=O)CCC4=C3[C@@H](c3ccc(N(C)C)cc3)C[C@@]21C [MIFEPRISTONE],Compound NOT metabolized
4,CC(C)(C)NCC(O)COc1cccc2c1CC(O)C(O)C2 (stereo not given) [NADOLOL],Compound metabolized

# Assay: as §1, with “Z-023” for “Z-025”, “to” for “to rabbit gut”, “ERS12561822” for “ERS12561824”
# Details: 2 µM
row,Compound,Bacterial Biotransformation
1,COC(=O)C(c1ccccc1)C1CCCCN1 (stereo not given) [METHYLPHENIDATE],Compound metabolized
2,CN1CCN2c3ccccc3Cc3ccccc3C2C1 (stereo not given) [MIANSERIN],Compound NOT metabolized
3,CC#C[C@]1(O)CC[C@H]2[C@@H]3CCC4=CC(=O)CCC4=C3[C@@H](c3ccc(N(C)C)cc3)C[C@@]21C [MIFEPRISTONE],Compound NOT metabolized
4,CC(C)(C)NCC(O)COc1cccc2c1CC(O)C(O)C2 (stereo not given) [NADOLOL],Compound NOT metabolized

# Assay: as §1, with “WLS-350” for “Z-025”, “human” for “rabbit”, “ERS12561789” for “ERS12561824”
# Details: 2 µM
row,Compound,Bacterial Biotransformation
1,COC(=O)C(c1ccccc1)C1CCCCN1 (stereo not given) [METHYLPHENIDATE],Compound NOT metabolized
2,CN1CCN2c3ccccc3Cc3ccccc3C2C1 (stereo not given) [MIANSERIN],Compound NOT metabolized
3,CC#C[C@]1(O)CC[C@H]2[C@@H]3CCC4=CC(=O)CCC4=C3[C@@H](c3ccc(N(C)C)cc3)C[C@@]21C [MIFEPRISTONE],Compound NOT metabolized
4,CC(C)(C)NCC(O)COc1cccc2c1CC(O)C(O)C2 (stereo not given) [NADOLOL],Compound metabolized

# Details: human gut metagenome, 24 h, 2 µM
# Remark: another data set of the same source
row,Compound,Bacterial Biotransformation
1,COC(=O)C(c1ccccc1)C1CCCCN1 (stereo not given) [METHYLPHENIDATE],Compound metabolized
2,CN1CCN2c3ccccc3Cc3ccccc3C2C1 (stereo not given) [MIANSERIN],Compound NOT metabolized
3,CC#C[C@]1(O)CC[C@H]2[C@@H]3CCC4=CC(=O)CCC4=C3[C@@H](c3ccc(N(C)C)cc3)C[C@@]21C [MIFEPRISTONE],Compound metabolized
4,CC(C)(C)NCC(O)COc1cccc2c1CC(O)C(O)C2 (stereo not given) [NADOLOL],Compound metabolized

# Assay: as §1, with “Z-004” for “Z-025”, “to” for “to rabbit gut”, “ERS12561804” for “ERS12561824”
# Details: 2 µM
row,Compound,Bacterial Biotransformation
1,COC(=O)C(c1ccccc1)C1CCCCN1 (stereo not given) [METHYLPHENIDATE],Compound metabolized
2,CN1CCN2c3ccccc3Cc3ccccc3C2C1 (stereo not given) [MIANSERIN],Compound NOT metabolized
3,CC#C[C@]1(O)CC[C@H]2[C@@H]3CCC4=CC(=O)CCC4=C3[C@@H](c3ccc(N(C)C)cc3)C[C@@]21C [MIFEPRISTONE],Compound NOT metabolized
4,CC(C)(C)NCC(O)COc1cccc2c1CC(O)C(O)C2 (stereo not given) [NADOLOL],Compound NOT metabolized

# Details: human gut metagenome, 24 h, 2 µM
# Remark: another data set of the same source
row,Compound,Bacterial Biotransformation
1,COC(=O)C(c1ccccc1)C1CCCCN1 (stereo not given) [METHYLPHENIDATE],Compound NOT metabolized
2,CN1CCN2c3ccccc3Cc3ccccc3C2C1 (stereo not given) [MIANSERIN],Compound NOT metabolized
3,CC#C[C@]1(O)CC[C@H]2[C@@H]3CCC4=CC(=O)CCC4=C3[C@@H](c3ccc(N(C)C)cc3)C[C@@]21C [MIFEPRISTONE],Compound metabolized
4,CC(C)(C)NCC(O)COc1cccc2c1CC(O)C(O)C2 (stereo not given) [NADOLOL],Compound NOT metabolized

# Details: human gut metagenome, 24 h, 2 µM
# Remark: another data set of the same source
row,Compound,Bacterial Biotransformation
1,COC(=O)C(c1ccccc1)C1CCCCN1 (stereo not given) [METHYLPHENIDATE],Compound NOT metabolized
2,CN1CCN2c3ccccc3Cc3ccccc3C2C1 (stereo not given) [MIANSERIN],Compound metabolized
3,CC#C[C@]1(O)CC[C@H]2[C@@H]3CCC4=CC(=O)CCC4=C3[C@@H](c3ccc(N(C)C)cc3)C[C@@]21C [MIFEPRISTONE],Compound NOT metabolized
4,CC(C)(C)NCC(O)COc1cccc2c1CC(O)C(O)C2 (stereo not given) [NADOLOL],Compound NOT metabolized

# Assay: as §1, with “Z-013” for “Z-025”, “ERS12561813” for “ERS12561824”
# Details: 2 µM
row,Compound,Bacterial Biotransformation
1,COC(=O)C(c1ccccc1)C1CCCCN1 (stereo not given) [METHYLPHENIDATE],Compound NOT metabolized
2,CN1CCN2c3ccccc3Cc3ccccc3C2C1 (stereo not given) [MIANSERIN],Compound NOT metabolized
3,CC#C[C@]1(O)CC[C@H]2[C@@H]3CCC4=CC(=O)CCC4=C3[C@@H](c3ccc(N(C)C)cc3)C[C@@]21C [MIFEPRISTONE],Compound metabolized
4,CC(C)(C)NCC(O)COc1cccc2c1CC(O)C(O)C2 (stereo not given) [NADOLOL],Compound NOT metabolized

# Details: human gut metagenome, 24 h, 2 µM
# Remark: another data set of the same source
row,Compound,Bacterial Biotransformation
1,COC(=O)C(c1ccccc1)C1CCCCN1 (stereo not given) [METHYLPHENIDATE],Compound NOT metabolized
2,CN1CCN2c3ccccc3Cc3ccccc3C2C1 (stereo not given) [MIANSERIN],Compound NOT metabolized
3,CC#C[C@]1(O)CC[C@H]2[C@@H]3CCC4=CC(=O)CCC4=C3[C@@H](c3ccc(N(C)C)cc3)C[C@@]21C [MIFEPRISTONE],Compound NOT metabolized
4,CC(C)(C)NCC(O)COc1cccc2c1CC(O)C(O)C2 (stereo not given) [NADOLOL],Compound NOT metabolized

# Assay: as §1, with “WLS-010” for “Z-025”, “human” for “rabbit”, “ERS12561743” for “ERS12561824”
# Details: 2 µM
row,Compound,Bacterial Biotransformation
1,COC(=O)C(c1ccccc1)C1CCCCN1 (stereo not given) [METHYLPHENIDATE],Compound NOT metabolized
2,CN1CCN2c3ccccc3Cc3ccccc3C2C1 (stereo not given) [MIANSERIN],Compound NOT metabolized
3,CC#C[C@]1(O)CC[C@H]2[C@@H]3CCC4=CC(=O)CCC4=C3[C@@H](c3ccc(N(C)C)cc3)C[C@@]21C [MIFEPRISTONE],Compound metabolized
4,CC(C)(C)NCC(O)COc1cccc2c1CC(O)C(O)C2 (stereo not given) [NADOLOL],Compound NOT metabolized
